Laboratory results from ChEMBL document CHEMBL5042528, “Optimization of 2-Amino-4,6-diarylpyrimidine-5-carbonitriles as Potent and Selective A1 Antagonists” (J Med Chem, 2022).

Legend:
Adenosine receptor A2a [1] = target: T1, Adenosine receptor A2a (Homo sapiens, UniProt P29274)
Adenosine receptor A1 [2] = target: T2, Adenosine receptor A1 (Homo sapiens, UniProt P30542); assay: Displacement of [3H]DPCPX from A1 adenosine receptor (unknown origin) expressed in CHO cell membrane incubated for 60 mins at room temperature by NXT microplate scintillation counter analysis; type: cell membranes
T2 sequence (P30542 whole entry): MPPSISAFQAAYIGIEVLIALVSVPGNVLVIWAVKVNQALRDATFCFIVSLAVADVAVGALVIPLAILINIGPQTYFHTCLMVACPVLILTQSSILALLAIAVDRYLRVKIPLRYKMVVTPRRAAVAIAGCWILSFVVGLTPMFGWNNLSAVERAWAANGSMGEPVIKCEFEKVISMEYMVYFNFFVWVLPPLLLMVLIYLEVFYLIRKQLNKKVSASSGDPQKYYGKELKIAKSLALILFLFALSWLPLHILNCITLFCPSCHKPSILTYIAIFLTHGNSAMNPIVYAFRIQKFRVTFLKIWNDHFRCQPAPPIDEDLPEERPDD

Adenosine receptor A2a [3] = target: T1, Adenosine receptor A2a; remark: listed apart in the source
Adenosine receptor A1 [4] = target: T2, Adenosine receptor A1
in vitro = conditions: human, liver microsomes
Description: Stability of the compound in human liver microsome assessed as compound remaining measured after 60 mins by UPLC-MS/MS analysis

T1 sequence (P29274 whole entry): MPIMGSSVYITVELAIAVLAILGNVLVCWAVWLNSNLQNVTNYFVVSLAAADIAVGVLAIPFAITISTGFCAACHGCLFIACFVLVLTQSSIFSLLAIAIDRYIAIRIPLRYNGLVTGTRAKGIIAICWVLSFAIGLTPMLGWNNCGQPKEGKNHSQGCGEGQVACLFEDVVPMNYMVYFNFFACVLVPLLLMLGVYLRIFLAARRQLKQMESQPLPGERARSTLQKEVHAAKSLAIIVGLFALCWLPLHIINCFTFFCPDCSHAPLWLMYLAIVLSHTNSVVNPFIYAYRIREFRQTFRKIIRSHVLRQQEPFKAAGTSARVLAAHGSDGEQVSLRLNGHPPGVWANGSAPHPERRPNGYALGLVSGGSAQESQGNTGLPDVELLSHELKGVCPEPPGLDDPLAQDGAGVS

For `N#Cc1c(-c2ccccc2)nc(NC(=O)C2CCCC2)nc1-c1ccc2c(c1)OCO2`, the Ki (Adenosine receptor A2a [1]) was 159 nM.
With `Nc1nc(-c2ccccc2)c2c(n1)-c1ccccc1C2=O` the Ki (Adenosine receptor A1 [2]) was 0.1 nM.
`N#Cc1c(-c2ccccc2)nc(Nc2ccccc2)nc1-c1cccc(O)c1` gave a Ki (Adenosine receptor A2a [3]) of 71.2 nM and a Ki (Adenosine receptor A1 [4]) of 18.3 nM.
`C[C@]12CC[C@H]3[C@@H](CCC4=CC(=O)CC[C@@]43C)[C@@H]1CC[C@@H]2O` [TESTOSTERONE] gave a remaining at 1 h (in vitro) of 3.7%.
